“Also recorded” adds a separate entry of the source.
Assays:
[1] = system: NGC-407 cells and U87 gioblastoma cells; test: Gap junction communication by fluorescent dye transfer, NGC-407 and U87; type: cell-based, human; details: differentiating and proliferating conditions
Method: (§1) This was analyzed semi-quantitatively/qualitatively by using fluorescent dye transfer techniques. It is evident that the GJC is enhanced by 4-PB both under differentiating and proliferating conditions in vitro. This is relevant since the in vivo environment may present transplanted cells with conditions that stimulate neither differentiation nor proliferation.

[2] = system: NGC-407 cells; test: Gap junction communication by fluorescent dye transfer between NGC-407 cells; type: cell-based, human; details: differentiating and proliferating conditions
Method: as §1

[3] = system: NGC-407 & U343MGa-cl 2:6 cells; test: Gap junction communication by calcein dye transfer, NGC-407 to U343MGa-cl 2:6; type: cell-based, human; details: PB 0.5 mM donor, 4 mM recipient for 72 hours, 4 hours co-culture at 0.5 mM
Method: Donor human embryonic neural stem cells (NGC-407) and recipient human glioblastoma cells (U343MGa-cl 2:6) were grown each in 2 separate 35 mm Petri dishes (1×10^5/dish). For NGC-407 cells the plates were poly-L-lysine (Sigma) coated and the medium was DMEM/F12 1:1 with glutamax I (Invitrogen) containing 40 ng/ml bFGF2 (R&D Systems), 20 ng/ml rhEGF, 1× N2 supplement, 1× non-essential amino acid, 5 mM HEPES buffer solution (from Invitrogen), 0.5% human serum albumin and 6 g/L D-glucose (from Sigma). The recipient cells were grown in DMEM containing 10% FBS, 100 units/ml penicillin and 100 μg/ml streptomycin (from Invitrogen). When the cells were approx. 60% confluent, treatment with 0 & 0.5 mM 4-Phenyl Butyrate (PB) for donor cells and 0 & 4 mM PB for recipient cells was started and continued for 72 hours. The donor cells were then double labelled by incubating with 1 ml of cell medium containing 10 μM Dil and 5 μM Calcein-AM (Molecular Probes) for 20 min. After aspiration of the dye containing medium the cells were washed 4-5 times with pure medium and then with PBS to get rid of free dye. After a very brief trypsinization the cells were centrifuged and resuspended in co-culture medium (donor cell medium including 0.5% FBS). The medium of recipient cells was replaced by co-culture medium and 5×10^4 donor cells were added to one recipient plate. […]

[4] = system: U87MG xenograft tumor; test: In vivo migration of GFP-expressing NGC-407 cells in nude rat model of human glioblastoma multiforme; set-up: species or system nude rats; details: PB 250 mg/kg intraperitoneally twice daily, 2 weeks
Method: 8-9 weeks old athymic nude male rats (rnu/rnu; Harlan, Germany) with an average weight of 200 g were used in our human glioblastoma multiforme xenograft model. They were housed in a group of 3 in standardized big cages in 50-70% relative humidity and 20°-24° C. temperature with 12/12 day/night variation. Food (Ad libitum), water and other materials used for these immunocompromised animals were autoclaved before use. Animals were anesthesitized by isoflurane inhalation and the head was fixed in a stereo tactic apparatus. Under microscopic guidance a burr hole of 1 mm diameter was made over the right hemisphere, 2 mm right lateral to the bregma. Using a Hamilton syringe of 5 μl volume 1.5×10^5 U87MG cells in 3 μl volume were slowly injected through the burr hole at a depth of 3.5 mm from the surface to reach the corpus callosum.
2×10^6 neural progenitors (NGC-407) recombinantly expressing green fluorescent protein (GFP), were plated in a 100 mm Petri dish and were grown as neurospheres for 48 hours. […]
Histopathological analysis of the sections was carried out by haematoxylin and eosin staining to determine the size and location of the implants. […] Immunohistochemically the tumor location was determined by correlating with the histological analysis and by the cell density while the sections were counter-stained with hoechst.

[5] = system: NGC-407 wt cells; test: Cell killing effect of AZT, XTT viability assay, parental cells; type: cell-based, human; details: parental NGC-407 cell line, 120 hours drug exposure
Method: Cell culture The human neuronal progenitor cell line NGC-407 was cultured in DMEM/F12 (Gibco #31331-028) conditioned with Human Serum Albunim (HSA) (Sigma #A 1653), N2 (Gibco #17502-048), B27 (Gibco #17504-044), Glucose (Sigma #G8769), bFGF (R&D Systems #233-FB), EGF (R& Systems #236-EG), MEM NEAA, x100 (Gibco #11140-035), HEPES (Gibco #15630-056), in poly-L-lysine (Sigma #P4832) coated flasks/Plates (CM-Lab, Denmark). Cells were grown at 37° C. and 5% CO2 in a humidified incubator.
Exponentially growing NGC-407 wt and tomato kinase (ZG561) expressing cells were plated at a density of 5.000 cells/well in poly-L-lysine coated 96-well plates in 100 μl conditioned medium and incubated 37° C. in a humidified incubator with a gas phase of 5% CO2. After 48 hours, medium was replaced with medium containing varying concentrations of AZT starting at 20 mM and down. […] The chemo resistance of cultured cells was monitored by the surviving cell fraction as a function of the drug concentration. Viability of cells was determined via the colorimetric XTT assay (XTT kit II-Roche, cat no. 1465015). […] The absorbance at 450 and 690 nm was determined using an ELISA plate reader (Ascent, ThermoLab). The IC50 value (50% inhibition concentration) of the investigated compound was calculated as the mean value of each experiment using SigmaPlot® (Dyrberg Trading, DK).

[6] = system: tomato kinase (ZG561) expressing NGC-407 cells; test: Cell killing effect of AZT, XTT viability assay, tomato kinase expressing cells; type: cell-based, human
Method: The constructed pLHCXZ (Clontech) plasmid vector pZG561 (coding for a Tomato Thymidine kinase I with a C-terminal deletion of 26 amino acids, WO 03/100045) and pVPack-GP (Stratagene) plus pVPack-VSV-G (Stratagene) were transfected into the packaging cells using LipofectAMINE PLUS (Invitrogen-Life Technologies, Inc.) according to the protocol provided by the supplier. The medium from the transfected cells, cultured in DMEM (Invitrogen), was collected 48 and 72 hours post transfection, filtered through a 0.45 μm filter, pelleted by ultracentrifugation (50.000g, 90 min at 4° C.) and dissolved in DMEM (Invitrogen). The titer of the virus was determined by reverse transcriptase assay. […]
The day before transduction, 1×10^6 cells/well were seeded in 6-well plates. […] Subsequently cells were ready for experiments.
Exponentially growing NGC-407 wt and tomato kinase (ZG561) expressing cells were plated at a density of 5.000 cells/well in poly-L-lysine coated 96-well plates in 100 μl conditioned medium and incubated 37° C. in a humidified incubator with a gas phase of 5% CO2. […] The chemo resistance of cultured cells was monitored by the surviving cell fraction as a function of the drug concentration. Viability of cells was determined via the colorimetric XTT assay (XTT kit II-Roche, cat no. 1465015). […] The absorbance at 450 and 690 nm was determined using an ELISA plate reader (Ascent, ThermoLab). […]

[7] = system: transfected cell line; details: cited from earlier work

O=C(O)CCCc1ccccc1 [4-PB, 4-Phenyl Butyrate]
gap junction communication (GJC) between NGC-407 cells and U87 gioblastoma cells [1]: enhances the gap junction communication | gap junction communication (GJC) between NGC-407 cells [2]: enhances the gap junction communication | gap junction communication NGC-407 to U343MGa-cl 2:6 (calcein transfer) [3]: significantly enhanced | gap junction communication NGC-407 to U343MGa-cl 2:6 (calcein transfer) ([3]; listed as PB): number of green recipient cells has also been significantly increased | GFP staining / GFP positive cells around and inside the tumor [4]: enhanced the GFP staining; also recorded: increases the number of GFP positive cells

Cc1cn([C@H]2C[C@H](N=[N+]=[N-])[C@@H](CO)O2)c(=O)[nH]c1=O [AZT]
IC50 [5]: 11.8 mM | IC50 ([6]; Hygromycin selected ZG561 (tomato TK) NGC-407 cells, 120 hours drug exposure, XTT): 0.051 mM | Sensitisation of NGC-407 cells towards AZT by Tomato Thymidine kinase ([6]; ZG561 cells versus parental cells): 230 fold

B1: B5: mutant Drosophila melanogaster deoxyribonucleoside kinase variant, SEQ ID NO 5 (protein)
chain: MAEAASCARKGTKYAEGTQPFTVLIEGNIGSGKTTYLNHFEKYKNDICLLTEPVEKWRNVNGVNLLELMYKDPKKWAMPFQSYATLTMLQSHTAPTNKKLKIMERSIFSARYCFVENMRRNGSLEQGMYNTLEEWYKFIEESIHVQADLIIYLRTSPEVAYERIRQRARSEESCVPLKYLQELHELHEDWLIHQRRPQSCKVLVLDADLDLENIGTEYQRSESSIFDAISSNQQPSPVPVSPSKRQRVAR
modifications: Drosophila melanogaster
degree of activation for gemcitabine relative to wild type Dm dNK [7]: approximately 50 times

Source: patent US8088567B2, “Human immortalised neural precursor cell line” (NsGene A/S, priority 2005, dated 2012)
